Laboratory results: patent US7833940B2, “2-(substituted phenyl)-6-hydroxy or alkoxy-5-substituted-4-pyrimidinecarboxylates and their use as herbicides” (Dow AgroSciences LLC, priority 2008, dated 2010)

What was measured:
[1] = tested on: Wild Pointsettia (Euphorbia heterophylla); assay: General postemergence herbicidal activity, EPHHL; assay type: in vivo; settings: post-emergent, 280 g ai/ha, visual score after 14 days (0 = no injury, 100 = complete kill)
Experimental: (§1) Seeds or nutlets of the desired test plant species were planted in Sun Gro MetroMix® 306 planting mixture, which typically has a pH of 6.0 to 6.8 and an organic matter content of about 30 percent, in plastic pots with a surface area of 64 square centimeters. When required to ensure good germination and healthy plants, a fungicide treatment and/or other chemical or physical treatment was applied. The plants were grown for 7-21 days in a greenhouse with an approximate 15 hour photoperiod which was maintained at about 23-29° C. during the day and 22-28° C. during the night. Nutrients and water were added on a regular basis and supplemental lighting was provided with overhead metal halide 1000-Watt lamps as necessary. The plants were employed for testing when they reached the first or second true leaf stage.
(§2) A weighed amount, determined by the highest rate to be tested, of each test compound was dissolved in 4 mL of a 97:3 v/v (volume/volume) mixture of acetone and dimethyl sulfoxide (DMSO) to obtain concentrated stock solutions. […] The concentrated stock solutions obtained were diluted with 20 mL of an aqueous mixture containing acetone, water, isopropyl alcohol, DMSO, Atplus 411F crop oil concentrate, and Triton® X-155 surfactant in a 48.5:39:10:1.5:1.0:0.02 v/v ratio to obtain spray solutions containing the highest application rates. […]
(§3) The treated plants and control plants were placed in a greenhouse as described above and watered by sub-irrigation to prevent wash-off of the test compounds. After 14 days, the condition of the test plants as compared with that of the untreated plants was determined visually and scored on a scale of 0 to 100 percent where 0 corresponds to no injury and 100 corresponds to complete kill.

[2] = tested on: Redroot Pigweed (Amatanthus retroflexus); assay: General postemergence herbicidal activity, AMARE; assay type: in vivo; settings: post-emergent, 280 g ai/ha, visual score after 14 days (0 = no injury, 100 = complete kill)
Experimental: as §1, §2, §3

[3] = tested on: Lambsquarters (Chenopodium album); assay: General postemergence herbicidal activity, CHEAL; assay type: in vivo; settings: post-emergent, 280 g ai/ha, visual score after 14 days (0 = no injury, 100 = complete kill)
Experimental: as §1, §2, §3

[4] = tested on: Common Sunflower (Helianthus annuus); assay: General postemergence herbicidal activity, HELAN; assay type: in vivo; settings: post-emergent, 280 g ai/ha, visual score after 14 days (0 = no injury, 100 = complete kill)
Experimental: as §1, §2, §3

| melting point [°C] | SMILES | % Growth Reduction EPHHL [1] [%] | % Growth Reduction AMARE [2] [%] | % Growth Reduction CHEAL [3] [%] | % Growth Reduction HELAN [4] [%] |
| --- | --- | --- | --- | --- | --- |
| 215 to 217 | COC(=O)c1nc(-c2ccc(Cl)c(OC)c2F)nc(O)c1Cl [Compound 1, 6-hydroxy-2-(4-chloro-2-fluoro-3-methoxyphenyl)-5-chloropyrimidine-4-carboxylic acid methyl ester] | 100 | 100 | 100 | 90 |
| 192 to 195 | COC(=O)c1nc(-c2ccc(Cl)c(OC)c2F)nc(O)c1Br [Compound 2, 6-hydroxy-2-(4-chloro-2-fluoro-3-methoxyphenyl)-5-bromopyrimidine-4-carboxylic acid methyl ester] | 100 | 100 | 95 | 85 |
| 177 to 179 | COC(=O)c1nc(-c2ccc(Cl)c(OC)c2F)nc(O)c1OC [Compound 3, 6-hydroxy-2-(4-chloro-2-fluoro-3-methoxyphenyl)-5-methoxypyrimidine-4-carboxylic acid methyl ester] | 100 | 40 | 90 | 10 |
